Laboratory results reported in patent publication US20260217706A1, “HETEROCYCLIC COMPOUNDS, PREPARATION METHOD THEREFOR AND USE THEREOF” (GUANGZHOU YUFAN NANTU BIOTECHNOLOGIES CO., LTD, priority 2023, published 2026).

Columns and labels:
CBL-B protein = CBL-B protein (Homo sapiens, UniProt Q13191); experiment: CBL-B binding experiment (Streptavidin-Tb cryptate / Ligand L1 displacement); details: 8 nM CBL-B protein, 25° C., 60 minutes; Ki=Relative IC50/2
Outline: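 Buffer was 20 mM HEPES pH 7.5, 150 mM NaCl, 0.01% Triton X-100, 0.5 mM TCEP and BSA. Ten-point compound dilutions were incubated with 8 nM CBL-B for 60 min at 25° C., then read by luminescence after another 60 min at room temperature. IC50 came from a four-parameter fit, with Ki = relative IC50/2.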

[1] = test system: anti-CD3 activated human PBMCs; experiment: Effect of compounds on the level of IL-2 secretion by anti-CD3 activated human PBMCs (IL-2 ELISA); assay type: cell-based; details: compound concentration at which fold change in IL-2 = 5; hPBMCs, CD3 antibody 2 μg/mL, 48 h, compound from 3 μM
Method: 2. Inoculate the resuspended cells into a 96-well cell culture plate at 200 ul/well of cell suspension, and incubate in a 37° C. cell incubator for 1 h;
3. Adjust the compound concentration with DMSO, starting at a final concentration of 3 μM, and perform a 3-fold dilution sequentially for 10 concentration gradients, with an additional DMSO control well set up; and
4. Adjust the CD3 antibody to an appropriate concentration to achieve a final concentration of 2 μg/mL, mix thoroughly, and incubate in a 37° C. cell incubator for 48h.
5. After 48 h, centrifuge at 1500 rpm for 5 min to collect the supernatant of the culture medium for the human IL-2 ELISA test.
The OD values obtained from the ELISA test are converted into the fold change (FC) in IL-2 concentration. […] The EC50 is calculated using GraphPad Prism. When the fold change=5, the corresponding compound concentration is CFC=5 (in nM).

Sequence of CBL-B protein (Q13191 whole entry): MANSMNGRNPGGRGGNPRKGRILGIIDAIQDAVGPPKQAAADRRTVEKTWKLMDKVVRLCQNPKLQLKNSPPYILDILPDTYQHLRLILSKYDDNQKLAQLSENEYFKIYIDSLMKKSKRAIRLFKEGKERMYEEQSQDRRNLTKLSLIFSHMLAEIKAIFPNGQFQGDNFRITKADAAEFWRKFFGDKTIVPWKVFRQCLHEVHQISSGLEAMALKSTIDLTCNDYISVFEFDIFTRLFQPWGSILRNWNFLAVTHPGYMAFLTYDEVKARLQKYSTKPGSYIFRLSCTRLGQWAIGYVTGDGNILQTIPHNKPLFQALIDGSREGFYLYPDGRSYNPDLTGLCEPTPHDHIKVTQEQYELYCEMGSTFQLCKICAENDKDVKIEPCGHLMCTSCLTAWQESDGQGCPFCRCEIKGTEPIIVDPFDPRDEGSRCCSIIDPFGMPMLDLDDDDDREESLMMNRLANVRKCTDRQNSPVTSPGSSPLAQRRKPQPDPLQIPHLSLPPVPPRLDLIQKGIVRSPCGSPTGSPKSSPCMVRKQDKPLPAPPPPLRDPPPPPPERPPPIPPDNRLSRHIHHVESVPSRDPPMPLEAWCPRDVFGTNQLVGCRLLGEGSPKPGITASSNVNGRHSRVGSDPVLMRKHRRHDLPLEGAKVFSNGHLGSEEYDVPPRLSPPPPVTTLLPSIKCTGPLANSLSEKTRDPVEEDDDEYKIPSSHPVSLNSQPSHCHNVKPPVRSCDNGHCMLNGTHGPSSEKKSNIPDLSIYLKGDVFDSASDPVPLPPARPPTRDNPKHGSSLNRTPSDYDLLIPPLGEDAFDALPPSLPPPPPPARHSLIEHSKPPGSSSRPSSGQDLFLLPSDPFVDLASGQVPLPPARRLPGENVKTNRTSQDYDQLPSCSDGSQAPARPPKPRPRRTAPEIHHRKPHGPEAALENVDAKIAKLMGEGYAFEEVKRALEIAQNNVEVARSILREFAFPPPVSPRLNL

Structure (SMILES) | Ki (CBL-B protein) [nM] | IL-2 CFC=5/nM [1] [nM]
C[C@H]1CCCN(Cc2cc3c(C4CC4)cn(-c4cccc([C@]5(Cc6nncn6C)C[C@H](C)C5)c4)c(=O)c3[nH]2)C1 [Compound T037, 4-cyclopropyl-6-(3-((1s,3R)-3-methyl-1-((4-methyl-4H-1,2,4-triazol-3-yl)methyl)cyclobutyl)phenyl)-2-(((S)-3-methylpiperidin-1-yl)methyl)-1,6-dihydro-7H-pyrrolo[2,3-c]pyridin-7-one] | < 50 | <500
CCC(C)CN(C)Cc1cc2c(C(F)(F)F)cn(-c3cccc(C4(c5nncn5C)CCC4)c3)c(=O)c2[nH]1 (stereo not shown) [Compound T040, 2-[[methyl(2-methylbutyl)amino]methyl]-6-[3-[1-(4-methyl-1,2,4-triazol-3-yl)cyclobutyl]phenyl]-4-(trifluoromethyl)-1H-pyrrolo[2,3-c]pyridin-7-one] | < 50 | <500
CCN(Cc1cc2c(C(F)(F)F)cn(-c3cccc(C4(c5nncn5C)CCC4)c3)c(=O)c2[nH]1)CC(C)C [Compound T041, 2-[[ethyl(isobutyl)amino]methyl]-6-[3-[1-(4-methyl-1,2,4-triazol-3-yl)cyclobutyl]phenyl]-4-(trifluoromethyl)-1H-pyrrolo[2,3-c]pyridin-7-one] | < 50 | <500
C[C@H](NCc1cc2c(C(F)(F)F)cn(-c3cccc(C4(c5nncn5C)CCC4)c3)c(=O)c2[nH]1)C(C)(C)C [Compound T043, (S)-2-(((3,3-dimethylbutan-2-yl)amino)methyl)-6-(3-(1-(4-methyl-4H-1,2,4-triazol-3-yl)cyclobutyl)phenyl)-4-(trifluoromethyl)-1,6-dihydro-7H-pyrrolo[2,3-c]pyridin-7-one] | < 50 | <500
Cn1cnnc1C1(c2cccc(-n3cc(C(F)(F)F)c4cc(CN5CC6CCC(C6)C5)[nH]c4c3=O)c2)CCC1 [Compound T053, 2-(3-azabicyclo[3.2.1]octan-3-ylmethyl)-6-[3-[1-(4-methyl-1,2,4-triazol-3-yl)cyclobutyl]phenyl]-4-(trifluoromethyl)-1H-pyrrolo[2,3-c]pyridin-7-one] | < 50 | <500
Cn1cnnc1C1(c2cccc(-n3cc(C(F)(F)F)c4cc(CN5CCCC6(CC6)C5)[nH]c4c3=O)c2)CCC1 [Compound T054, 2-(5-azaspiro[2.5]octan-5-ylmethyl)-6-[3-[1-(4-methyl-1,2,4-triazol-3-yl)cyclobutyl]phenyl]-4-(trifluoromethyl)-1H-pyrrolo[2,3-c]pyridin-7-one] | < 50 | <500
C[C@H]1CCCN(Cc2cc3c(C(F)(F)F)cn(-c4cccc([C@H](c5nncn5C)C5CCC5)c4)c(=O)c3[nH]2)C1 [Compound T060, 6-(3-((R)-cyclobutyl (4-methyl-4H-1,2,4-triazol-3-yl)methyl)phenyl)-2-(((S)-3-methylpiperidin-1-yl)methyl)-4-(trifluoromethyl)-1,6-dihydro-7H-pyrrolo[2,3-c]pyridin-7-one] | < 50 | <500
CCN(Cc1cc2c(C(F)(F)F)cn(-c3cccc([C@]4(c5nncn5C)C[C@@H](C)C4)c3)c(=O)c2[nH]1)CC(C)C [Compound T069, 2-((ethyl(isobutyl)amino)methyl)-6-(3-((1s,3s)-3-methyl-1-(4-methyl-4H-1,2,4-triazol-3-yl)cyclobutyl)phenyl)-4-(trifluoromethyl)-1,6-dihydro-7H-pyrrolo[2,3-c]pyridin-7-one] | < 50 | <500
C[C@H]1CCCN(Cc2cc3c(C4CC4)cn(-c4cccc(C5(Cc6nncn6C)CC(F)(F)C5)c4)c(=O)c3[nH]2)C1 [Compound T077, 4-cyclopropyl-6-[3-[3,3-difluoro-1-[(4-methyl-1,2,4-triazol-3-yl)methyl]cyclobutyl]phenyl]-2-[[(3S)-3-methyl-1-piperidyl]methyl]-1H-pyrrolo[2,3-c]pyridin-7-one] | < 50 | <500

Continued, in another order:

Ki (CBL-B protein) [nM] | Structure (SMILES) | IL-2 CFC=5/nM [1] [nM]
< 50 | Cn1cnnc1[C@]1(c2cccc(-n3cc(C(F)(F)F)c4cc(CNC5(C)CCC5)[nH]c4c3=O)c2)C[C@H](C)C1 [Compound T035, 6-(3-((1s,3s)-3-methyl-1-(4-methyl-4H-1,2,4-triazol-3-yl)cyclobutyl)phenyl)-2-(((1-methylcyclobutyl)amino)methyl)-4-(trifluoromethyl)-1,6-dihydro-7H-pyrrolo[2,3-c]pyridin-7-one] | <500
< 50 | Cn1cnnc1C1(c2cccc(-n3cc(C(F)(F)F)c4cc(CN5CCC[C@H](O)C5)[nH]c4c3=O)c2)CCC1 [Compound T038, 2-[[(3S)-3-hydroxy-1-piperidyl]methyl]-6-[3-[1-(4-methyl-1,2,4-triazol-3-yl)cyclobutyl]phenyl]-4-(trifluoromethyl)-1H-pyrrolo[2,3-c]pyridin-7-one] | <500
< 50 | CCCN(Cc1cc2c(C(F)(F)F)cn(-c3cccc(C4(c5nncn5C)CCC4)c3)c(=O)c2[nH]1)C(C)C [Compound T042, 2-[[isopropyl(propyl)amino]methyl]-6-[3-[1-(4-methyl-1,2,4-triazol-3-yl)cyclobutyl]phenyl]-4-(trifluoromethyl)-1H-pyrrolo[2,3-c]pyridin-7-one] | <500
< 50 | Cn1cnnc1[C@]1(c2cccc(-n3cc(C(F)(F)F)c4cc(CNCCC5CC5)[nH]c4c3=O)c2)C[C@H](C)C1 [Compound T045, 2-(((2-cyclopropylethyl)amino)methyl)-6-(3-((1s,3s)-3-methyl-1-(4-methyl-4H-1,2,4-triazol-3-yl)cyclobutyl)phenyl)-4-(trifluoromethyl)-1,6-dihydro-7H-pyrrolo[2,3-c]pyridin-7-one] | <500
< 50 | Cn1cnnc1[C@]1(c2cccc(-n3cc(C(F)(F)F)c4cc(CN5CC[C@H](F)C5)[nH]c4c3=O)c2)C[C@H](C)C1 [Compound T047, 2-(((S)-3-fluoropyrrolidin-1-yl)methyl)-6-(3-((1s,3R)-3-methyl-1-(4-methyl-4H-1,2,4-triazol-3-yl)cyclobutyl)phenyl)-4-(trifluoromethyl)-1,6-dihydro-7H-pyrrolo[2,3-c]pyridin-7-one] | <500
< 50 | Cn1cnnc1[C@]1(c2cccc(-n3cc(C(F)(F)F)c4cc(CN5CCC[C@H]6C[C@H]65)[nH]c4c3=O)c2)C[C@H](C)C1 [Compound T055, 2-(((1R,6S)-2-azabicyclo [4.1.0]heptan-2-yl)methyl)-6-(3-((1s,3S)-3-methyl-1-(4-methyl-4H-1,2,4-triazol-3-yl)cyclobutyl)phenyl)-4-(trifluoromethyl)-1,6-dihydro-7H-pyrrolo[2,3-c]pyridin-7-one] | <500
< 50 | Cn1cnnc1[C@]1(c2cccc(-n3cc(C(F)(F)F)c4cc(CN5CCC[C@@H]6C[C@@H]65)[nH]c4c3=O)c2)C[C@H](C)C1 [Compound T056, 2-(((1 S,6R)-2-azabicyclo [4.1.0]heptan-2-yl)methyl)-6-(3-((1s,3R)-3-methyl-1-(4-methyl-4H-1,2,4-triazol-3-yl)cyclobutyl)phenyl)-4-(trifluoromethyl)-1,6-dihydro-7H-pyrrolo[2,3-c]pyridin-7-one] | <500
< 50 | CO[C@H]1C[C@](c2cccc(-n3cc(C(F)(F)F)c4cc(CNC5(C)CCC5)[nH]c4c3=O)c2)(c2nncn2C)C1 [Compound T066, 6-(3-((1r,3r)-3-methoxy-1-(4-methyl-4H-1,2,4-triazol-3-yl)cyclobutyl)phenyl)-2-(((1-methylcyclobutyl)amino)methyl)-4-(trifluoromethyl)-1,6-dihydro-7H-pyrrolo[2,3-c]pyridin-7-one] | <500
< 50 | CO[C@H]1C[C@@](c2cccc(-n3cc(C(F)(F)F)c4cc(CNC5(C)CCC5)[nH]c4c3=O)c2)(c2nncn2C)C1 [Compound T067, 6-(3-((1s,3s)-3-methoxy-1-(4-methyl-4H-1,2,4-triazol-3-yl)cyclobutyl)phenyl)-2-(((1-methylcyclobutyl)amino)methyl)-4-(trifluoromethyl)-1,6-dihydro-7H-pyrrolo[2,3-c]pyridin-7-one] | <500
< 50 | C[C@H]1CCCN(Cc2cc3c(C(F)(F)F)cn(-c4cccc(C5(c6nncn6C)CC(F)C5)c4)c(=O)c3[nH]2)C1 (stereo partly drawn) [Compound T070, 6-[3-[3-fluoro-1-(4-methyl-1,2,4-triazol-3-yl)cyclobutyl]phenyl]-2-[[(3S)-3-methyl-1-piperidyl]methyl]-4-(trifluoromethyl)-1H-pyrrolo[2,3-c]pyridin-7-one] | <500
< 50 | C[C@H]1CCCN(Cc2cc3c(C(F)(F)F)cn(-c4cccc([C@]5(c6nncn6C)C[C@@H](F)C5)c4)c(=O)c3[nH]2)C1 [Compound T071, 6-[3-[3-fluoro-1-(4-methyl-1,2,4-triazol-3-yl)cyclobutyl]phenyl]-2-[[(3S)-3-methyl-1-piperidyl]methyl]-4-(trifluoromethyl)-1-H-pyrrolo[2,3-c]pyridin-7-one] | <500
